Patent US20080207532A1, “Use of Nordihydroguaiaretic Acid Derivatives in the Treatment of Drug Resistant Cancer, Viral and Microbial Infection” (Johns Hopkins University, priority 2004, published 2008)
Several values for one entry are separate records, joined by “and”; a condition that tells them apart may be missing. Identical values can stand only once. Like-named read-outs stand apart in the source and are kept apart here.

Key:
NCI/ADR-RES cells = assay: SRB cytotoxicity assay with median-effect / combination index analysis; assay type: cell-based, human; settings: for IC50: NCI/ADR-RES
Procedure: The multidrug resistant cell line, NCI/ADR-RES, was obtained from the DTP Human Tumor Cell Line Screen (Developmental Therapeutics Program, NCI). Both cell lines were maintained in Dulbecco's modified Eagle's medium supplemented with 10% fetal bovine serum and the antibiotics penicillin and streptomycin. […] Stocks of M4N and paclitaxel (Sigma-Aldrich, St. Louis, Mo.) were prepared in dimethyl sulfoxide (DMSO) and added to the cell culture medium so that the final concentration of DMSO was one percent. Aqueous stocks of Dox (Sigma-Aldrich) were prepared and filter sterilized before dilution into growth medium.
NCI/ADR-RES cells were seeded at a density of 2×10^4 cells per well in 24 well plates and 24 h later the growth medium was supplemented with M4N, Dox, paclitaxel or combinations of M4N with Dox or M4N with paclitaxel. MAN was used at concentrations between 1.5 and 48 μM. For the combination of MAN and Dox a constant molar ratio of 2.4:1 (M4N:Dox) was used and for M4N and paclitaxel the ratio was 20:1 (M4N:paclitaxel). Three days after drug addition cytoxicity was assessed with the SRB assay (14) with 540 and 690 nm (reference) absorbance measured with a Power Wave 200 microplate reader (Bio-Tek Instruments, Winooski, Vt.).
The combination index (CD isobologram method of Chou and Talalay (16, 17, 18, 19) which is based on the median effect principle, was used to calculate synergism or antagonism for the combined drug effects. Dose-effect curves for each drug, singly and in combination, in serially-diluted concentrations were plotted using the median-effect equation and plot (18, 20) and the CI equation and plot (19). CI values at different effect and dose levels and isobolograms were generated automatically using the computer software CompuSyn (20). With this method, additive, synergistic or antagonistic effects are indicated by CI values of 1, <1, and >1, respectively. Comparison of the ratio of doses required to reach a given effect level for each single drug and the drugs in combination was used to determine the dose-reduction index (DRI).

MDR1 mRNA and Pgp = assay: Dox induction of MDR1 gene expression in MCF-7 cells; assay type: cell-based, human; settings: MCF-7, 0.05 μM Dox with 5.0 μM M4N, two days
Procedure: Total RNA was isolated using the Trizol Reagent (Invitrogen, Carlsbad, Calif.). RT-PCR was carried out with the Superscript II One-Step RT-PCR system with Platinum Taq DNA Polymerase (Invitrogen) according to the manufacturer's protocol using oligonucleotide primers specific for MDR1: […]
Cultured cells were incubated in a solution of 10 mM EDTA and 10 mM EGTA in PBS and then harvested by scraping with a Teflon® cell scraper. The cells were pelleted and lysed in modified RIPA buffer [50 mM Tris-HCl (pH 7.4), 1% NP-40, 0.25% Na-deoxycholate, 150 mM NaCl, 1 mM EDTA (pH 8.0)] containing Protease Inhibitor Cocktail (Sigma Chemical Co.). The lysate was cleared by centrifligation and protein concentrations were determined with the Bio-Rad Protein Assay (Bio-Rad Laboratories, Hercules, Calif.). Protein samples were separated by SDS-PAGE and electroblofted to a Hybond enhanced chemiluminescence (ECL) nitrocellulose membrane (Amersham) with a semidry blotting apparatus and detected as described in the instruction manual of the ECL Western Blotting System (Amersham). The antibodies used were primary rabbit polyclonal antibodies against Pgp and cyclin B and a horseradish […] conjugated secondary antibody (Santa Cruz Biotechnology). Relative band intensities were measured with ImageJ software. […]

[1] = mouse, IP, IV and oral; cited from earlier work
[2] = clinical trials to date; cited from earlier work
[3] = M4N/Dox combination 2.4:1, NCI/ADR-RES
[4] = M4N/paclitaxel combination 20:1, NCI/ADR-RES

Structure (SMILES): COc1ccc(C[C@@H](C)[C@@H](C)Cc2ccc(OC)c(OC)c2)cc1OC [M4N, tetra-o-methyl nordihydroguaiaretic acid]
- DRI value at ED75 (NCI/ADR-RES cells; [3]): 5.94
- DRI value at ED90 (NCI/ADR-RES cells; [3]): 24.26
- DRI value at ED95 (NCI/ADR-RES cells; [3]): 63.16
- DRI value at ED75 (NCI/ADR-RES cells; [4]): 3.98
- DRI value at ED90 (NCI/ADR-RES cells; [4]): 5.76
- DRI value at ED95 (NCI/ADR-RES cells; [4]): 7.40
- IC50 (NCI/ADR-RES cells; three days, combinations at molar ratio 2.4:1 (M4N:Dox) or 20:1 (M4N:paclitaxel), given as M4N + second drug, read-out: Dm, median effect dose (concentration that inhibits cell growth by 50%)): 9.14 µM and 8.19 µM
- IC50 (NCI/ADR-RES cells; single agent, read-out: average IC50): 8.67 µM
- induction of MDR1 expression by Dox (MDR1 mRNA and Pgp): abolished
- level of drug in the blood [1]: extremely low and only presents transiently
- systemic side effects (gastrointestinal problems, anemia, hair loss) [2]: has not caused the systemic side effects
